Bounds are passed on as bounds.

The record followed here is ChEMBL document CHEMBL3045327, “Synthesis, cytotoxic evaluation, and in silico studies of substituted N-alkylbromo-benzothiazoles” (Med Chem Res, 2013).

Holding throughout (type): functional, cell-based
The test system of one test is A549. Put plainly: Cytotoxicity against Homo sapiens (human) A549 cells after 48 hr by SRB assay. To be noted: for IC50: A549, 48 h. (In general: Sulforhodamine B stains cellular protein and so reports cell mass.)
The subject of another test is PC-3. Kind of test: Cytotoxicity against Homo sapiens (human) PC3 cells after 48 hr by SRB assay. To be noted: for IC50: PC-3, 48 h.
A further test has as its system Caco-2. Put plainly: Cytotoxicity against Homo sapiens (human) Caco2 cells after 48 hr by SRB assay. Conditions: Caco-2, 48 h.
The next test concerns THP-1. Kind of test: Cytotoxicity against Homo sapiens (human) THP1 cells after 48 hr by SRB assay. To be noted: for IC50: THP-1, 48 h.

On to `Clc1ccc2nc(NCCBr)sc2c1`, for which the Activity entry with A549, with PC-3 and in the test with THP-1 was “Dose-dependent effect” in each case. Further, the IC50 (usually the point on the concentration scale where inhibition reaches its midpoint) in the test with A549 is > 100 µM; in the test with PC-3 it was 99 µM; with Caco-2, > 100 µM; in the test on THP-1 it was 97.8 µM.
Regarding `Clc1cc2nc(NCCCBr)sc2cc1Cl`, the Activity entry in the test on A549, in the test with PC-3 and in the test on THP-1 was “Dose-dependent effect” throughout. Further, the IC50 is > 100 µM in the test with A549, 28 µM in the test with PC-3, 63 µM with Caco-2 and 7 µM in the test on THP-1.
Take `Clc1cccc2sc(NCCCBr)nc12`: the Activity result in the test on A549, in the test on PC-3 and in the test on THP-1 was “Dose-dependent effect” each time. The IC50 in the test on A549 was > 100 µM; in the test on PC-3, 3.1 µM; in the test with Caco-2 it was > 100 µM; in the test on THP-1 it was 1.72 µM.
As to `Clc1cccc2sc(NCCBr)nc12`, the Activity entry with A549, in the test with PC-3 and with THP-1 was “Dose-dependent effect” each time. The IC50 in the test on A549 is > 100 µM; in the test on PC-3, 110 µM; in the test on Caco-2, 26.9 µM; in the test on THP-1, 110 µM.
As for `Cc1ccc2nc(NCCCBr)sc2c1`, the Activity result in the test with A549, in the test with PC-3 and in the test with THP-1 was “Dose-dependent effect” each time. The IC50 is > 100 µM with A549, 53.3 µM in the test with PC-3, 81.6 µM in the test with Caco-2 and 30.3 µM in the test with THP-1.
With `CC(=O)O[C@H]1C(=O)[C@@]2(C)[C@H]([C@H](OC(=O)c3ccccc3)[C@]3(O)C[C@H](OC(=O)[C@H](O)[C@@H](NC(=O)c4ccccc4)c4ccccc4)C(C)=C1C3(C)C)[C@]1(OC(C)=O)CO[C@@H]1C[C@@H]2O`, the Activity entry with A549, in the test on PC-3 and in the test with THP-1 was “Dose-dependent effect” throughout.
`O=c1[nH]cc(F)c(=O)[nH]1` [FLUOROURACIL]: the Activity result with A549, in the test on PC-3 and in the test with THP-1 was “Dose-dependent effect” in each case. The compound further came in with an IC50 in the test on Caco-2 of 21 µM.
Take `Fc1ccc2nc(NCCBr)sc2c1`: the Activity result in the test with A549, in the test with PC-3 and with THP-1 was “Dose-dependent effect” throughout. Further, the half-inhibitory concentration (IC50) in the test with A549 was determined as 67.6 µM; with PC-3, 9.9 µM; with Caco-2, 16.8 µM; with THP-1, 1 µM.
`Cc1ccc2nc(NCCBr)sc2c1`: the Activity result in the test with A549, in the test on PC-3 and in the test with THP-1 was “Dose-dependent effect” in each case. Further, the IC50 is > 100 µM in the test with A549, 40.9 µM in the test on PC-3, 67.7 µM with Caco-2 and 39.9 µM with THP-1.
As for `CO[C@@]12[C@H](COC(N)=O)C3=C(C(=O)C(C)=C(N)C3=O)N1C[C@@H]1N[C@@H]12` [MITOMYCIN], the Activity entry in the test on A549, with PC-3 and in the test on THP-1 was “Dose-dependent effect” throughout. The IC50 with A549 was 0.4 µM; with THP-1 it was 1.5 µM.
Turning to `Clc1ccc2nc(NCCCBr)sc2c1`, the Activity entry in the test with A549, with PC-3 and in the test with THP-1 was “Dose-dependent effect” throughout. In addition, the IC50 in the test on A549 was > 100 µM; with PC-3, 62.8 µM; in the test on Caco-2 it was 33 µM; in the test on THP-1 it was 60 µM.
Turning to `Fc1ccc2nc(NCCCBr)sc2c1`, the Activity entry in the test with A549, with PC-3 and in the test with THP-1 was “Dose-dependent effect” in each case. For the same compound, the IC50 is > 100 µM with A549, 2.5 µM in the test on PC-3, 93.7 µM in the test with Caco-2 and 0.9 µM with THP-1.
On to `COc1ccc2nc(NCCBr)sc2c1`, for which the Activity result with A549, in the test on PC-3 and with THP-1 was “Dose-dependent effect” throughout. In addition, the IC50 is > 100 µM with A549, 100 µM with PC-3, 47.9 µM with Caco-2 and 110 µM in the test on THP-1.
On to `Clc1cc2nc(NCCBr)sc2cc1Cl`, for which the Activity entry in the test with A549, with PC-3 and with THP-1 was “Dose-dependent effect” throughout. Moreover, the IC50 was 85.5 µM with A549, 24 µM in the test with PC-3, 8.4 µM with Caco-2 and 8.46 µM with THP-1.
Turning to `COc1ccc2nc(NCCCBr)sc2c1`, the Activity result with A549, in the test with PC-3 and in the test with THP-1 was “Dose-dependent effect” throughout. Besides, the IC50 with A549 stood at 89.9 µM; in the test with PC-3 it was 0.6 µM; in the test on Caco-2, 9.9 µM; with THP-1, 3 µM.
